{
  "source": "patent US11103525B2",
  "about": "“Idoxuridine and its analogs as neuroprotectans for the treatment of parkinsonism” (priority 2017, dated 2021)",
  "format_in_all_cases": "cell-based, mouse",
  "key": {"[1]": {"test_system": "GPR37-tGFP overexpressing cells", "assay": "Cytoprotection against Eeyarestatin (EeI), GPR37-tGFP overexpressing cells", "experimental": "FIG. 9: Cytoprotection of Idoxuridine against Eel. Eeyarestatin (Eel) is a potent inhibitor of endoplasmic reticulum associated protein degradation (ERAD) pathway, specifically targeting p97. Eel-mediated reduction of cell viability is counteracted by idoxuridine in both GPR37-tGFP overexpressing cells (A) and WT (B) cells. Data represented as mean+SD. Analysis performed via one-way ANOVA with Neuman-Keuls post-test for both Figures. *** indicates p<0.001.\nEeyarestatin (EeI) is a potent inhibitor of endoplasmic reticulum associated protein degradation (ERAD) pathway, specifically targeting p97."}, "[2]": {"test_system": "GPR37-tGFP overexpressing cells", "assay": "Cytoprotection against H2O2, GPR37-tGFP overexpressing cells", "details": "in-well H2O2 0.00025%, compared with WT cells", "from_the_text": "FIG. 10: Cytoprotection of Idoxuridine against […]. H2O2 reduces cell viability by increasing oxidative stress. This effect was counteracted by idoxuridine in GPR37-tGFP overexpressing cells (A) and WT (B) cells. […] In-well H2O2 concentration used was 0.00025%. […]"}, "GPR37-tGFP": {"test_system": "GPR37-tGFP", "assay": "GPR37-tGFP translocation assay", "details": "72 h", "experimental": "FIG. 2. Schematic representation of the rationale and the basic steps of GPR37-translocation assay. A. GPR37 is prone to misfolding and aggregation, which, in metabolically-active cells, are followed by degradation and results in low levels of functional receptor in the plasma membrane. The primary targets of the screening assay are compounds that can directly or indirectly facilitate maturation and trafficking of GPR37 to the plasma membrane. B. N2a cells stably expressing GPR37-tGFP are seeded in poly-D-Lysine coated 384 well plates at density 5000 cells/well. 24 h later cells are treated with compounds, including positive and negative controls, and incubated for 72 h. Then cells are fixed with 4% PFA and additionally stained with Hoechst 33342 (nuclei) and HCS CellMask™ red (cell body) to enable segmentation of the plasma membrane. Acquisition of fluorescence images is done using ImageXpress high content screening system (Molecular Devices). Quantification of GPR37-tGFP levels in the plasma membrane is done using CellProfiler software. FIG. 3. Schematic representation of Image analysis pipeline and final outcome data. Segmentation of the plasma membrane is performed in five main steps: 1) identification of nuclei (primary objects) using nuclear stain, 2) determination of cell borders using primary objects as seeds and growing these objects in respect of tGFP and HCS CellMask™ fluorescence intensity (secondary objects), 3) shrinking and expending secondary objects, 4) subtraction of shrunken cells from expended cells which results in membrane segmentation (tertiary objects), 5) tGFP fluorescence intensity is calculated within tertiary objects. Z′ factor is a quality measure of an assay which describes how well separated positive and negative controls are. Assays having Z′ factors above 0.5 are considered good assays. N2a cells stably expressing GPR37-tGFP were seeded in 384 BDFalcon BioCoat Poly-D-Lysine coated plates at a density of 5000 cells/well, and 50 μL incubation volume of maintenance medium. Cells were incubated at 37° C., 5% CO2 using humidity chamber. 24 h later, the cells were treated with 10 μL of compounds of desired concentration, including positive (2 mM dibutyryl-cAMP+0.5 mM 4-phenylbutyrate) and negative controls (0.1% DMSO), and incubated for 72 h. Cells were fixed with 4% PFA by adding 20 μL of 16% PFA directly to cell medium, incubating for 20 min and washing with PBS-Tween20 (0.05%). Directly after fixation cells were stained for nuclei with Hoechst 33342 (0.01 mg/mL) and for cell bodies with HCS CellMask™ Red stain (Thermo Fisher Scientific Inc.) (0.001 mg/mL) by incubating with the dyes for 30 min in PBS-Tween20 (0.05%) followed by washing with PBS. All the additional steps, including cell seeding were performed using Multidrop Combi dispenser (Thermo Scientific) and washing steps were done by means of HydroSpeed™ plate washer (Tecan). The images were captured using ImageXpress Micro XLS Widefield High-Content Analysis System (Molecular Devices, LLC) in 3 fluorescent channels (ImageXpress filters are listed, followed by excitation/emission in nm): DAPI (387/447), FITC (482/536) and TexasRed (562/624). Binning 2 was applied during the acquisition and digital confocal option was used for FITC and TexasRed filters. Typically, 5 images were taken per well at magnification 20× and stored as 16 bit, gray scale tif files along with metadata in Oracle database, for further analysis. Quantification of GPR37-tGFP levels in the plasma membrane was done using CellProfiler™ software. CellProfiler™ is an open-source cell image analysis software available at www.cellprofiler.org. An image analysis pipeline used for membrane segmentation consisted of 5 main steps (FIG. 3): 1) segmentation of nuclei (primary objects); 2) segmentation of cell bodies (secondary objects); 3) shrinking and expending cell bodies; 4) subtraction of shrank cells from expanded cells (tertiary objects—membranes); 5) calculating tGFP fluorescence in the membranes. […]"}},
  "data": [
    {"smiles": "O=c1[nH]c(=O)n([C@H]2C[C@H](O)[C@@H](CO)O2)cc1I", "note": "[Idoxuridine, 2′-deoxy-5-iodouridine]", "values": [
      {"measurement": "effect on EeI-mediated reduction of cell viability", "setting": "[1]", "value": "counteracted"},
      {"measurement": "effect on H2O2-induced reduction of cell viability", "setting": "[2]", "value": "significantly stronger"},
      {"measurement": "concentration up to which GPR37-tGFP level at the plasma membrane increases in a dose response manner", "setting": "GPR37-tGFP; dose response", "value": "around 5 μM"},
      {"measurement": "EC50", "setting": "GPR37-tGFP; dose response, read-out: concentration giving 50% activity of positive control (GPR37-tGFP level at the plasma membrane)", "value": "~1000", "unit": "nM"},
      {"measurement": "GPR37-tGFP level in the plasma membrane, activity of positive control", "setting": "GPR37-tGFP; primary screen, 10 μM, positive control (dibutyryl-cAMP + 4-phenylbutyrate) = 100%", "value": "about 100%"}
    ]}
  ]
}
